Changes are numbered by the printed parent chain. “And” between values parts separate entries of the source, which are not always exact repeats. Equal entries are not always repeated. “Also recorded” adds a separate entry of the source.
Tests used:
Test in all cases: ATP dose response (EC50), TEVC in oocytes
Assay type in all cases: cell-based
hP2X1 D170A = molecular target: T1, hP2X1 D170A (Homo sapiens, UniProt P51575, D170A); settings: for Normalized Current: hP2X1 D170A
T1 construct: hP2X1 mRNA that was made from linearized full-length wild-type or mutant pcDNA 3.1x; expressed in transfected cells; host or cells: Xenopus laevis oocytes (mRNA injection)
T1 sequence (P51575 1-399 D170A): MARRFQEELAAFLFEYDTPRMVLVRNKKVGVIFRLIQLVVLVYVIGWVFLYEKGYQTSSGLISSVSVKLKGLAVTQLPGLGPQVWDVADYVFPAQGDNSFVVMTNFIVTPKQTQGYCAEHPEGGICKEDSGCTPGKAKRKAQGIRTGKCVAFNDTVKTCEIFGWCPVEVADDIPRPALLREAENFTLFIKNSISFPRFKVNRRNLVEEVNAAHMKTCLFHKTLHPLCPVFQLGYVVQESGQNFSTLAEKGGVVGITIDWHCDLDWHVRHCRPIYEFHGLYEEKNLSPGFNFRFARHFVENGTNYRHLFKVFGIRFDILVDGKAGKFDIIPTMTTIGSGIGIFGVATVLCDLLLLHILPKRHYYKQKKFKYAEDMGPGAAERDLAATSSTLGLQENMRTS
Protocol: (§1) Oocytes were purchased defolliculated from Ecocyte Bioscience in Barth’s Solution (88 mM NaCl, 1 mM KCl, 0.82 mM MgSO4, 0.33 mM Ca(NO3)2, 0.41 mM CaCl2, 2.4 mM NaHCO3, 5 mM Tris-HCl) supplemented with penicillin (100 U/mL) and streptomycin (100 µg/mL). Xenopus laevis oocytes were then injected with 50 nL of 100 ng/μL hP2X1 mRNA that was made from linearized full-length wild-type or mutant pcDNA 3.1x according to the protocol provided in the mMessage mMachine kit (Invitrogen). Injected oocytes were allowed to express for ~20 hours at 18 °C before recording was performed.
(§2) Data acquisition was performed using the Oocyte Clamp OC-725C amplifier and pClamp 8.2 software. Buffers were applied using a gravity fed RSC-200 Rapid Solution Changer that flows at ~5 mL/min. All experiments use Sutter filamented glass 10 cm in length with an inner diameter of 0.69 mm and an outer diameter of 1.2 mm to impale oocytes and clamp the holding voltage at −60 mV. Experiments were recorded in buffer containing 10 mM HEPES (pH 7.4), 140 mM NaCl, 5 mM KCl, 2 mM CaCl2, 2 mM MgCl2, and 10 mM glucose.
(§3) Excitatory responses to a dilution series of ATP between 6.4 nM and 10 mM were examined across the different mutants. Each evoked response was normalized to an initial ATP-induced current evoked by the following concentrations: 500 µM ATP for R292A, 2 mM ATP for K309A, and 100 µM ATP for the remaining mutants and wild-type receptor. The data was fit in Prism 9 using the nonlinear regression named “EC50, x is concentration” to afford EC50 values. This value was then averaged amongst each singular condition and reported as an average plus or minus the standard deviation.

hP2X1 K140A = molecular target: T2, hP2X1 K140A (Homo sapiens, UniProt P51575, K140A); settings: for Normalized Current: hP2X1 K140A
T2 construct: hP2X1 mRNA that was made from linearized full-length wild-type or mutant pcDNA 3.1x; expressed in transfected cells; host or cells: Xenopus laevis oocytes (mRNA injection)
T2 sequence (P51575 1-399 K140A): T1 sequence (P51575 1-399 D170A) with K140A, A170D
Protocol: as §1, §2, §3

hP2X1 K309A = molecular target: T3, hP2X1 K309A (Homo sapiens, UniProt P51575, K309A)
T3 construct: hP2X1 mRNA that was made from linearized full-length wild-type or mutant pcDNA 3.1x; expressed in transfected cells; host or cells: Xenopus laevis oocytes (mRNA injection)
T3 sequence (P51575 1-399 K309A): T1 sequence (P51575 1-399 D170A) with A170D, K309A
Protocol: as §1, §2, §3

hP2X1 R139A = molecular target: T4, hP2X1 R139A (Homo sapiens, UniProt P51575, R139A)
T4 construct: hP2X1 mRNA that was made from linearized full-length wild-type or mutant pcDNA 3.1x; expressed in transfected cells; host or cells: Xenopus laevis oocytes (mRNA injection)
T4 sequence (P51575 1-399 R139A): T1 sequence (P51575 1-399 D170A) with R139A, A170D
Protocol: as §1, §2, §3

Nc1ncnc2c1ncn2[C@@H]1O[C@H](COP(=O)(O)OP(=O)(O)OP(=O)(O)O)[C@@H](O)[C@H]1O [ATP]
apparent affinity (EC50) of ATP, effect of mutation (hP2X1 D170A; hP2X1 D170A vs wild-type, TEVC): do not appear to significantly change; also recorded: no major effect; also recorded: does not significantly impact | Normalized Current (hP2X1 D170A; [ATP] 1.000E-04 M): 0.9915 and 0.8795 and 0.8416 | Normalized Current (hP2X1 D170A; [ATP] 2.000E-05 M): 0.8809 and 0.7486 and 0.74 | Normalized Current (hP2X1 D170A; [ATP] 3.200E-08 M): 0.000000 | Normalized Current (hP2X1 D170A; [ATP] 4.000E-06 M): 0.723 and 0.5398 and 0.4488 | Normalized Current (hP2X1 D170A; [ATP] 5.000E-04 M): 1.029 and 1.009 and 0.9611 | apparent affinity (EC50) of ATP, effect of mutation (hP2X1 K140A; hP2X1 K140A vs wild-type, TEVC): do not appear to significantly change; also recorded: no major effect; also recorded: did not impact | Normalized Current (hP2X1 K140A; [ATP] 1.000E-04 M): 1.047 and 0.9489 and 0.9169 | Normalized Current (hP2X1 K140A; [ATP] 4.000E-06 M): 0.661 and 0.6317 and 0.5508 | Normalized Current (hP2X1 K140A; [ATP] 5.000E-04 M): 1.045 and 0.9875 and 0.9677 | EC50 of ATP (hP2X1 K309A; TEVC): impacted | Normalized Current (hP2X1 K309A; [ATP] 1.000E-02 M): 1.006 and 0.9573 and 1.036 | Normalized Current (hP2X1 K309A; [ATP] 2.000E-03 M): 0.8423 and 0.8039 and 0.8072 | Normalized Current (hP2X1 K309A; [ATP] 3.200E-06 M): 0.000000 | Normalized Current (hP2X1 K309A; [ATP] 4.000E-04 M): 0.3324 and 0.3289 and 0.2846 | EC50 of ATP (hP2X1 R139A; TEVC): no effect; also recorded: without affecting | Normalized Current (hP2X1 R139A; [ATP] 1.000E-04 M): 0.9464 and 0.9017 and 0.9178 | Normalized Current (hP2X1 R139A; [ATP] 2.000E-05 M): 0.8825 and 0.6805 and 0.736 | Normalized Current (hP2X1 R139A; [ATP] 4.000E-06 M): 0.6603 and 0.5057 and 0.6077 | Normalized Current (hP2X1 R139A; [ATP] 5.000E-04 M): 1.062 and 0.93 and 1.008

From publication PMC11448502, “Cryo-EM structures of the human P2X1 receptor reveal subtype-specific architecture and antagonism by supramolecular ligand-binding” (Nature Communications, 2024)
